# Experimental data as given in patent US7691572B2, “Method and kit for detecting resistance to antiviral drugs” (priority 1998, dated 2010).
# Like-named read-outs stand apart in the source and are kept apart here.
# Experiments:
# Format in all cases: biochemical
# [1] = target: T1, recombinant p66/p51 HIV-1 reverse transcriptase (Human immunodeficiency virus type 1 group M subtype B, UniProt P04585); experiment: 3HdCTP incorporation assay with recombinant RT; conditions: read-out: concentration resulting in 50% inhibition of incorporation of 3HdCTP; (rI)n-dC12-18 template primer
# T1 construct: recombinant p66/p51 HIV-1 reverse transcriptase; purchased Biotechnology General, Rehovot, Israel
# Experimental: Wild type HIV-1SUM9, and multiple dideoxy nucleoside-resistant HIV-1SUM8 (Q151M mutation), HIV-1SUM12 (F77L/F116Y/Q151M) and HIV-1SUM13 (A62V/V751/F77L/F116Y/Q151M) MICs were provided by Dr. Mitsuya as described by Shirasaka et al., Proc. Natl. Acad. Sci. USA 92: 2398-2402 (1995). The synthesis and preparation of 3TC-TP were carried out as described by Schinazi et al., Antimicrob. Agents Chemother. 36: 2423-2431 (1992). The crude 3TC-5-TP was purified by FPLC using a HiLoad 26/10Q Sepharose Fast Flow™ Pharmacia chromatography column (Pharmacia, Piscataway, N.J.) and gradient of TEAE buffer (pH 7.0). The compound was characterized by UV spectroscopy, proton and phosphorous NMR, mass spectroscopy and HPLC.
# [2] = test system: HIV-1 RT; conditions: for inhibition of RT activity / RT activity inhibition / Phenotype / % inhibition: 1 μM AZT-TP
# Text: Four groups of archived HIV-1 specimens with known genotypes were selected for assay validation. These included WT, MNR, MNR carrying unrelated resistance mutations, and non-MNR specimens carrying classical AZT resistance mutations (Schmit et al., “Multiple drug resistance to nucleoside analogues and nonnucleoside reverse transcriptase inhibitors in an efficiently replicating human immunodeficiency virus type 1 patient strain,” J. Infect. Dis. 174: 962-968 (1996); Winters et al., “A 6-base pair insert in the reverse transcriptase gene of human immunodeficiency virus type 1 confers resistance to multiple nucleoside inhibitors,” J. Clin. Invest. 102: 1769-1775 (1998); Adje et al., “High prevalence of genotypic and phenotypic HIV-1 drug-resistant strains among patients receiving antiretroviral therapy in Abidjan, Cote d'Ivoire,” J. Acquired Immune Deficiency Syndromes 26: 501-506 (2001); Weinstock et al., “Prevalence of mutations associated with reduced antiretroviral drug susceptibility among human immunodeficiency virus type 1 seroconverters in the United States, 1993-1998,” J. Infect. Dis. 182: 330-333 (2000)). Forty-four samples were selected which comprised 7 viral stocks and 37 plasma samples obtained from 34 HIV-1-infected persons.
# [3] = target: HIV-1 RT (Human immunodeficiency virus type 1 group M subtype B, UniProt P04585); experiment: Amp-RT assay, AZT-TP and other NRTI-TPs, reference viruses; parameters: The susceptibility of HIV-1 RT activity from viral isolates or plasma samples; made in house
# [4] = specimen no. 40 (T215Y and T69S-EA insertions)
smiles,measurement,setting,value
"Nc1ccn([C@@H]2CS[C@H](COP(=O)(O)OP(=O)(O)OP(=O)(O)O)O2)c(=O)n1 [3TC-TP, 3TC-5′-triphosphate]",IC50,[1],1300 nM
"Cc1cn([C@H]2C[C@H](N=[N+]=[N-])[C@@H](COP(=O)(O)OP(=O)(O)OP(=O)(O)O)O2)c(=O)[nH]c1=O [AZT-TP, AZT-triphosphate]",inhibition of RT activity,[2]; 9 specimens containing classical AZT-resistant mutations,87%
same,RT activity inhibition,[2]; 23 specimens with MNR genotypes,0-62%
same,RT activity inhibition,[2]; HIV-1 RTs that had more MNR-related mutations,0-16%
same,inhibition of RT activity,[2]; all 12 specimens with WT genotype,93%
same,Phenotype,[2]; specimen 12,S
same,% inhibition,"[2]; specimen 12, WT",100%
same,Phenotype,[2]; specimen 13,R
same,% inhibition,"[2]; specimen 13, S68G, Q151M",40%
same,Phenotype,[2]; specimen 14,R
same,% inhibition,"[2]; specimen 14, A62A/V, S68G, V75I, F77L, F116Y, Q151M",6%
same,Phenotype,[2]; specimen 15,R
same,% inhibition,"[2]; specimen 15, S68G, V75I, F77L, K103N, F116Y, Q151M, M184V",0%
same,Phenotype,[2]; specimen 16,R
same,% inhibition,"[2]; specimen 16, Q151Q/M",38%
same,% inhibition,"[2]; specimen 17, Q151M",23%
same,% inhibition,"[2]; specimen 18, Q151M",57%
same,Phenotype,[2]; specimen 26,R
same,% inhibition,"[2]; specimen 26, A62V, V75T, Q151M, M184I/M",11%
same,% inhibition,"[2]; specimen 27, V75I, F77L, F116Y, Q151M",0%
same,% inhibition,"[2]; specimen 28, V75I, F77L, F116Y, Q151M",8%
same,Phenotype,[2]; specimen 29,R
same,% inhibition,"[2]; specimen 29, A62V, V75I, F77L, F116Y, Q151M, M184V",0%
same,Phenotype,[2]; specimen 30,R
same,% inhibition,"[2]; specimen 30, K65R, K70R, V75I, F77L, F116Y, Q151M",13%
same,Phenotype,[2]; specimen 31,R
same,% inhibition,"[2]; specimen 31, D67N, Q151M, M184V",17%
same,Phenotype,[2]; specimen 32,R
same,% inhibition,"[2]; specimen 32, V75I, F77L, F116Y, Q151M, M184V",26%
same,Phenotype,[2]; specimen 35,R
same,% inhibition,"[2]; specimen 35, F116Y, Q151M, T215Y, V35I, I135T",62%
same,Phenotype,[2]; specimen 36,S
same,% inhibition,"[2]; specimen 36, D67N, L210W, L214F, T215Y",95.6%
same,Phenotype,[2]; specimen 37,S
same,% inhibition,"[2]; specimen 37, A62V, K70R, L74V, K103N, T215F",92.6%
same,Phenotype,[2]; specimen 38,S
same,Phenotype,[2]; specimen 39,S
same,% inhibition,"[2]; specimen 39, M41L, M184V, L214F, T215Y",89.1%
same,Phenotype,[2]; specimen 44,S
same,Phenotype,"[2]; specimens 1-11, WT",S
same,% inhibition,"[2]; specimens 1-11, recent seroconverters, WT",93-100%
same,Phenotype,"[2]; specimens 17, 18",R
same,Phenotype,[2]; specimens 19-21,R
same,% inhibition,"[2]; specimens 19-21, A62V, V75I, F77L, F116Y, Q151M",4-16%
same,Phenotype,[2]; specimens 22-25,R
same,% inhibition,"[2]; specimens 22-25, A62V, S68G, V75I, F77L, F116Y, Q151M",0%
same,Phenotype,[2]; specimens 27-28,R
same,Phenotype,"[2]; specimens 33, 34",R
same,Phenotype,[2]; specimens 40-43,S
same,% inhibition,"[2]; specimens 40-43, T215Y, T69S-insertions EA/SS/SG",87-97%
same,IC50 compared to reference WT HIV-1 isolates,"[2]; plasma specimen no. 25 (A62V, S68G, V75I, F77L, F116Y, Q151M)",44 fold
same,IC50,[2]; [4],400 nM
same,IC90,[2]; [4],1000 nM
same,% inhibition (SEM),"[3]; 1 μM AZT-TP, HIV-1HXB2, WT",98 (±2) %
same,IC50,[3]; WT HIV-1HXB2,500 nM
same,IC90,[3]; WT HIV-1HXB2,900 nM
